Test results from US7902361B2, “Pyrimidin-4-yl-3, 4-thione compounds and their use in therapy” (Cyclacel Limited, priority 2003, dated 2011).

How the values were obtained:
Assay type in all cases: biochemical
CDK1/cyclin B = CDK1/cyclin B (Homo sapiens, UniProt P06493); assay: Kinase assay CDK1/cyclin B (radioactive phosphate incorporation); conditions: Ki calculated (Cheng-Prusoff) from experimentally determined IC50 and Km,ATP; read-out: Kinase Inhibition Ki CDK1 - cyclin B
Description: (§1) The compounds from the examples above were investigated for their ability to inhibit the enzymatic activity of various protein kinases. This was achieved by measurement of incorporation of radioactive phosphate from ATP into appropriate polypeptide substrates. Recombinant protein kinases and kinase complexes were produced or obtained commercially. Assays were performed using 96-well plates and appropriate assay buffers (typically 25 mM β-glycerophosphate, 20 mM MOPS, 5 mM EGTA, 1 mM DTT, 1 mM […], pH 7.4), into which were added 2-4 μg of active enzyme with appropriate substrates. […] Reactions were stopped on ice, followed by filtration through p81 filterplates or GF/C filterplates (Whatman Polyfiltronics, Kent, UK). After washing 3 times with 75 mM aq orthophosphoric acid, plates were dried, scintillant added and incorporated radioactivity measured in a scintillation counter (TopCount, Packard Instruments, Pangbourne, Berks, UK). Compounds for kinase assay were made up as 10 mM stocks in DMSO and diluted into 10% DMSO in assay buffer.

CDK2/cyclin E = CDK2/cyclin E (Homo sapiens, UniProt P24941); assay: Kinase assay CDK2/cyclin E; conditions: Ki calculated (Cheng-Prusoff) from experimentally determined IC50 and Km,ATP; read-out: Kinase Inhibition Ki CDK2 - cyclin E
Description: as §1

CDK9/cyclin T1 = CDK9/cyclin T1 (Homo sapiens, UniProt P50750); assay: Kinase assay CDK9/cyclin T1; conditions: Ki calculated (Cheng-Prusoff) from experimentally determined IC50 and Km,ATP; read-out: Kinase Inhibition Ki CDK9 - cyclin T1
Chain of CDK9/cyclin T1 (P50750 whole entry, species assumed): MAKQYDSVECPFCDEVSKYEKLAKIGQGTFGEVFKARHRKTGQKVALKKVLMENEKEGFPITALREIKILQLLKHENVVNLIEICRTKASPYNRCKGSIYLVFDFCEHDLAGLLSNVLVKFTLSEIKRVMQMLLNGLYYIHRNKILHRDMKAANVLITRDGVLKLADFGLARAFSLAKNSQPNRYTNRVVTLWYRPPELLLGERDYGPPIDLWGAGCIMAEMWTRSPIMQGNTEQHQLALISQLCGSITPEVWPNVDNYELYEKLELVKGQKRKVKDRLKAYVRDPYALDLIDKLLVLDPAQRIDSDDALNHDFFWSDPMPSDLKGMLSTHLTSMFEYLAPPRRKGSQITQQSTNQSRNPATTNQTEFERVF
Chain of CDK9/cyclin T1 (O60563 whole entry partner, species assumed): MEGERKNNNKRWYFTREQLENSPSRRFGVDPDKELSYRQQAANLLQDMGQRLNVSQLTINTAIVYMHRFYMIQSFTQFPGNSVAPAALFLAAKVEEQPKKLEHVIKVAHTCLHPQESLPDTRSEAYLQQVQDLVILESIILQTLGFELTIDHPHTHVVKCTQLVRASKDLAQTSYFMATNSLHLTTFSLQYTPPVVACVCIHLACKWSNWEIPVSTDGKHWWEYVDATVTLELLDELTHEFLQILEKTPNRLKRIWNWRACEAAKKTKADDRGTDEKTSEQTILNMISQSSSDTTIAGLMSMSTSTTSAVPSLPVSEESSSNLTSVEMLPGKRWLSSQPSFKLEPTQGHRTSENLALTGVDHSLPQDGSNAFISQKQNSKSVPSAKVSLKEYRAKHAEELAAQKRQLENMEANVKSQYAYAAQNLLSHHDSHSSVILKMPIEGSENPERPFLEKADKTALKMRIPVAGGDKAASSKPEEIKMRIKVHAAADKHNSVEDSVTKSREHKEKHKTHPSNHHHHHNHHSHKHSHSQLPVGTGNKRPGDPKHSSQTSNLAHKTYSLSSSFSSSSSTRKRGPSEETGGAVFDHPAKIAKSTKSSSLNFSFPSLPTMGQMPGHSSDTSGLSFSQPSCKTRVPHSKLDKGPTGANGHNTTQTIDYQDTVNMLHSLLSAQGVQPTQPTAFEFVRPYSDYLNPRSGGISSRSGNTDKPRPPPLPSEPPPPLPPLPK
Description: (§2) The compounds from the examples above were investigated for their ability to inhibit the enzymatic activity of various protein kinases. This was achieved by measurement of incorporation of radioactive phosphate from ATP into appropriate polypeptide substrates. Recombinant protein kinases and kinase complexes were produced or obtained commercially. Assays were performed using 96-well plates and appropriate assay buffers (typically 25 mM β-glycerophosphate, 20 mM MOPS, 5 mM EGTA, 1 mM DTT, 1 mM […], pH 7.4), into which were added 2-4 μg of active enzyme with appropriate substrates. The reactions were initiated by addition of Mg/ATP mix (15 mM MgCl2+100 μM ATP with 30-50 kBq per well of [γ-^32P]-ATP) and mixtures incubated as required at 30° C. Reactions were stopped on ice, followed by filtration through p81 filterplates or GF/C filterplates (Whatman Polyfiltronics, Kent, UK). After washing 3 times with 75 mM aq orthophosphoric acid, plates were dried, scintillant added and incorporated radioactivity measured in a scintillation counter (TopCount, Packard Instruments, Pangbourne, Berks, UK). Compounds for kinase assay were made up as 10 mM stocks in DMSO and diluted into 10% DMSO in assay buffer.

CDK7/cyclin H = CDK7/cyclin H (Homo sapiens, UniProt P50613); assay: Kinase assay CDK7/cyclin H; conditions: Ki calculated (Cheng-Prusoff) from experimentally determined IC50 and Km,ATP; read-out: Kinase Inhibition Ki CDK7 - cyclin H
Chain of CDK7/cyclin H (P50613 whole entry, species assumed): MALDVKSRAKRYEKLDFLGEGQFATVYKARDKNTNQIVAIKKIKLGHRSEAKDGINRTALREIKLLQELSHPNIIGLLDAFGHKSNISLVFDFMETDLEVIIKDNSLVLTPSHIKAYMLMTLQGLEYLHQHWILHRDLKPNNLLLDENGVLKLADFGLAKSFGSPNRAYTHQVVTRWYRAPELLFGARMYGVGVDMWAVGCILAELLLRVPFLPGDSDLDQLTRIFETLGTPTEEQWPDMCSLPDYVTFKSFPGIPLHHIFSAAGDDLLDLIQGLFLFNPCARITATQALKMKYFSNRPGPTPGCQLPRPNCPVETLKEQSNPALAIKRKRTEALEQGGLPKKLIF
Chain of CDK7/cyclin H (P51946 whole entry partner, species assumed): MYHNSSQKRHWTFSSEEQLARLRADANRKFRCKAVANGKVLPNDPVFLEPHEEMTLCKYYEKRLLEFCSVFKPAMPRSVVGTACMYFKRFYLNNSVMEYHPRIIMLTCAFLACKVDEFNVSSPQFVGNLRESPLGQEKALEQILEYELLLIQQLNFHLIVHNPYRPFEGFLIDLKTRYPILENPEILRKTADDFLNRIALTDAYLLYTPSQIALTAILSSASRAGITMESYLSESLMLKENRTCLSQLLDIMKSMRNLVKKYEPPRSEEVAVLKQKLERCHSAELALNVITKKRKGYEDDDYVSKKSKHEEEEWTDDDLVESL
Description: as §2

CDK2/cyclin A = CDK2/cyclin A (Homo sapiens, UniProt P24941); assay: Kinase assay CDK2/cyclin A; conditions: Ki calculated (Cheng-Prusoff) from experimentally determined IC50 and Km,ATP; read-out: Kinase Inhibition Ki CDK2 - cyclin A
Description: as §1

CDK4/cyclin D1 = CDK4/cyclin D1 (Homo sapiens, UniProt P11802); assay: Kinase assay CDK4/cyclin D1; conditions: Ki calculated (Cheng-Prusoff) from experimentally determined IC50 and Km,ATP; read-out: Kinase Inhibition Ki CDK4 - cyclin D1
Chain of CDK4/cyclin D1 (P11802 whole entry, species assumed): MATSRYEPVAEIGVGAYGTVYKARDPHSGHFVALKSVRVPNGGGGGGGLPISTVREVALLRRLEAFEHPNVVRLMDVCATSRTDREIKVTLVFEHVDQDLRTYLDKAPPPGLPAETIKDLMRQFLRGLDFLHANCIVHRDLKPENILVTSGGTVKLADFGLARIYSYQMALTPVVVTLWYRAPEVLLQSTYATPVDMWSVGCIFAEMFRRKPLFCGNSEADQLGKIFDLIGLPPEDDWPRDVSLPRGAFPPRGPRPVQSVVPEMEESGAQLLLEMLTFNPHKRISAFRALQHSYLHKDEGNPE
Chain of CDK4/cyclin D1 (P24385 whole entry partner, species assumed): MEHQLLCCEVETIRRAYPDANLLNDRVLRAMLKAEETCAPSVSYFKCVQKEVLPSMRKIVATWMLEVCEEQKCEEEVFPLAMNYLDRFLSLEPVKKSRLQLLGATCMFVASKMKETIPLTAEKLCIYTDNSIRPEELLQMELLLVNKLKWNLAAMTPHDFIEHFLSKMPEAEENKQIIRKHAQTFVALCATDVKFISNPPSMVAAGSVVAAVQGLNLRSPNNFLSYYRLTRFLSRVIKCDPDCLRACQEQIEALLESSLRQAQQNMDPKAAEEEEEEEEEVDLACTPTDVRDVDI
Description: as §2

Chain of CDK1/cyclin B (P06493 whole entry, species assumed): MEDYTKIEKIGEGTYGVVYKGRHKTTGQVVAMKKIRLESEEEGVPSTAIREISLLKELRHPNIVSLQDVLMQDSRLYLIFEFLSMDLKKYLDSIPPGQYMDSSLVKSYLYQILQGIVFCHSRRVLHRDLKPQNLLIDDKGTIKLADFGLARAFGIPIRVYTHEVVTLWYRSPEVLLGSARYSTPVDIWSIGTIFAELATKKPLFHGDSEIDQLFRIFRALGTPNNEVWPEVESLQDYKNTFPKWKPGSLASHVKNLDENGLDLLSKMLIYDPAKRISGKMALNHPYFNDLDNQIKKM
Chain of CDK1/cyclin B (P14635 whole entry partner, species assumed): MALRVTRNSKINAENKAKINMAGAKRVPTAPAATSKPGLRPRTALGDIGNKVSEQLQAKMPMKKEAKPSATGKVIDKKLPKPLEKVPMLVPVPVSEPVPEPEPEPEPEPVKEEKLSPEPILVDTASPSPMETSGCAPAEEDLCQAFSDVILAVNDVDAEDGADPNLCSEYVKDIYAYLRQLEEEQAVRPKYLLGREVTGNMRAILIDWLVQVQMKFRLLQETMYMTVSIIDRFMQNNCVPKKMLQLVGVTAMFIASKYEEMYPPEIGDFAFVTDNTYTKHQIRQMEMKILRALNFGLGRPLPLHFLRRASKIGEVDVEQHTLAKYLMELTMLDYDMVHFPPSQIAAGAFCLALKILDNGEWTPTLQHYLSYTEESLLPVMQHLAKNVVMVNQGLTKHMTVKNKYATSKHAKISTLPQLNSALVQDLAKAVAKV

Structure (SMILES) | Ki (CDK1/cyclin B) [nM] | Ki (CDK2/cyclin E) [nM] | Ki (CDK9/cyclin T1) [nM] | Ki (CDK7/cyclin H) [nM] | Ki (CDK2/cyclin A) [nM] | Ki (CDK4/cyclin D1) [nM]
Cc1c(-c2ccnc(Nc3ccc(Cl)nc3)n2)sc(=O)n1C [Compound 32, 5-[2-(6-Chloro-pyridin-3-ylamino)-pyrimidin-4-yl]-3,4-dimethyl-3H-thiazol-2-one] | 500 | 68 | 6.5 | – | – | –
CC(=O)Nc1nccc(-c2sc(=O)n(C)c2C)n1 [Compound 85, N-[4-(3,4-Dimethyl-2-oxo-2,3-dihydro-thiazol-5-yl)-pyrimidin-2-yl]-acetamide] | – | – | 290 | – | – | –
Cc1c(-c2ccnc(Nc3ccc(Cl)cc3)n2)sc(=O)n1CCC(C)C [Compound 31, 5-[2-(4-Chloro-phenylamino)-pyrimidin-4-yl]-4-methyl-3-(3-methyl-butyl)-3H-thiazol-2-one] | – | – | – | 430 | – | –
Cc1[nH]c(=O)sc1-c1ccnc(Nc2cccc([N+](=O)[O-])c2)n1 [Compound 40, 4-Methyl-5-[2-(3-nitro-phenylamino)-pyrimidin-4-yl]-3H-thiazol-2-one] | 17 | 3.2 | 2.4 | 71 | 11 | 230
CC(=O)N1CCN(c2ccc(Nc3nccc(-c4sc(=O)n(C)c4C)n3)cc2)CC1 [Compound 17, 5-{2-[4-(4-Acetyl-piperazin-1-yl)-phenylamino]-pyrimidin-4-yl}-3,4-dimethyl-3H-thiazol-2-one] | 6900 | 260 | 77 | 510 | 180 | 190
Cc1ccc(Nc2nccc(-c3sc(=O)n(C)c3C)n2)cc1I [Compound 14, 5-[2-(3-Iodo-4-methyl-phenylamino)-pyrimidin-4-yl]-3,4-dimethyl-3H-thiazol-2-one] | 700 | 350 | 35 | – | 840 | 2100
Cc1ccc(Nc2nccc(-c3sc(=O)[nH]c3C)n2)cc1[N+](=O)[O-] [Compound 41, 4-Methyl-5-[2-(4-methyl-3-nitro-phenylamino)-pyrimidin-4-yl]-3H-thiazol-2-one] | 49 | 12 | 8.9 | 290 | 23 | 130
CCn1c(C)c(-c2ccnc(Nc3cccc(OC)c3)n2)sc1=O [Compound 50, 3-Ethyl-5-[2-(3-methoxy-phenylamino)-pyrimidin-4-yl]-4-methyl-3H-thiazol-2-one] | – | – | 80 | 140 | – | –
Cc1c(-c2ccnc(NCc3cccnc3)n2)sc(=O)n1C [Compound 83, 3,4-Dimethyl-5-{2-[(pyridin-3-ylmethyl)-amino]-pyrimidin-4-yl}-3H-thiazol-2-one] | – | 1600 | 320 | – | – | 1300
Cc1c(-c2ccnc(Nc3ccc(Cl)cc3)n2)sc(=O)n1C [Compound 4, 5-[2-(4-Chloro-phenylamino)-pyrimidin-4-yl]-3,4-dimethyl-3H-thiazol-2-one] | 460 | 130 | – | 4100 | 200 | 1600
CCn1c(C)c(-c2ccnc(Nc3ccc(Cl)c(C(=O)OC)c3)n2)sc1=O [Compound 25, 2-Chloro-5-[4-(3-ethyl-4-methyl-2-oxo-2,3-dihydro-thiazol-5-yl)-pyrimidin-2-ylamino]-benzoic acid methyl ester] | – | 2700 | 4400 | – | 23000 | –
Cc1c(-c2ccnc(Nc3ccc(N4CCOCC4)cc3)n2)sc(=O)n1C [Compound 9, 3,4-Dimethyl-5-[2-(4-morpholin-4-yl-phenylamino)-pyrimidin-4-yl]-3H-thiazol-2-one] | 5200 | 590 | – | 1300 | 170 | 670
CCn1c(C)c(-c2ccnc(Nc3ccc(N(C)C)c([N+](=O)[O-])c3)n2)sc1=O [Compound 29, 5-[2-(4-Dimethylamino-3-nitro-phenylamino)-pyrimidin-4-yl]-3-ethyl-4-methyl-3H-thiazol-2-one] | – | 33 | 7 | 43 | – | 170
COc1ccc(Nc2nccc(-c3sc(=O)n(C)c3C)n2)cc1 [Compound 6, 5-[2-(4-Methoxy-phenylamino)-pyrimidin-4-yl]-3,4-dimethyl-3H-thiazol-2-one] | 260 | 380 | – | 920 | 190 | 570
Cc1c(-c2ccnc(Nc3cccc(C(F)(F)F)c3)n2)sc(=O)n1C [Compound 19, 3,4-Dimethyl-5-[2-(3-trifluoromethyl-phenylamino)-pyrimidin-4-yl]-3H-thiazol-2-one] | – | 1700 | 1800 | 5100 | – | –

Second part, the compound after the results:

Ki (CDK1/cyclin B) [nM] | Ki (CDK2/cyclin E) [nM] | Ki (CDK9/cyclin T1) [nM] | Ki (CDK7/cyclin H) [nM] | Ki (CDK2/cyclin A) [nM] | Ki (CDK4/cyclin D1) [nM] | Structure (SMILES)
– | 6500 | 85 | 910 | – | – | Cc1ccc([N+](=O)[O-])cc1Nc1nccc(-c2sc(=O)n(C)c2C)n1 [Compound 20, 3,4-Dimethyl-5-[2-(2-methyl-5-nitro-phenylamino)-pyrimidin-4-yl]-3H-thiazol-2-one]
3500 | 1100 | 1800 | 230 | 600 | – | Cc1c(-c2ccnc(Nc3ccc(Cl)nc3)n2)sc(=O)n1CCC(C)C [Compound 34, 5-[2-(6-Chloro-pyridin-3-ylamino)-pyrimidin-4-yl]-4-methyl-3-(3-methyl-butyl)-3H-thiazol-2-one]
– | – | 0.7 | – | – | – | Cc1c(-c2ccnc(Nc3ccc(O)cc3)n2)sc(=O)n1C [Compound 3, 5-[2-(4-Hydroxy-phenylamino)-pyrimidin-4-yl]-3,4-dimethyl-3H-thiazol-2-one]
9900 | 8600 | – | – | – | – | Cc1c(-c2ccnc(Nc3cc([N+](=O)[O-])ccc3N(C)C)n2)sc(=O)n1C [Compound 37, 5-[2-(2-Dimethylamino-5-nitro-phenylamino)-pyrimidin-4-yl]-3,4-dimethyl-3H-thiazol-2-one]
380 | 66 | 24 | – | – | – | Cc1cc(Nc2nccc(-c3sc(=O)n(C)c3C)n2)ccc1F [Compound 12, 5-[2-(4-Fluoro-3-methyl-phenylamino)-pyrimidin-4-yl]-3,4-dimethyl-3H-thiazol-2-one]
– | – | 130 | – | – | – | Cc1c(-c2ccnc(N)n2)sc(=O)n1C [Compound 84, 5-(2-Amino-pyrimidin-4-yl)-3,4-dimethyl-3H-thiazol-2-one]
6300 | 1900 | 370 | – | 1100 | 24000 | CCn1c(C)c(-c2ccnc(Nc3ccc(Cl)c(C(=O)O)c3)n2)sc1=O [Compound 24, 2-Chloro-5-[4-(3-ethyl-4-methyl-2-oxo-2,3-dihydro-thiazol-5-yl)-pyrimidin-2-ylamino]-benzoic acid]
130 | 43 | – | 620 | 25 | 540 | Cc1c(-c2ccnc(Nc3cccc(O)c3)n2)sc(=O)n1C [Compound 7, 5-[2-(3-Hydroxy-phenylamino)-pyrimidin-4-yl]-3,4-dimethyl-3H-thiazol-2-one]
280 | 130 | – | 520 | 21 | 990 | Cc1c(-c2ccnc(Nc3ccc(F)c([N+](=O)[O-])c3)n2)sc(=O)n1C [Compound 10, 5-[2-(4-Fluoro-3-nitro-phenylamino)-pyrimidin-4-yl]-3,4-dimethyl-3H-thiazol-2-one]
